Laboratory results: article PMC5218480 (PLoS ONE, 2017)

Test system: MV-4-11 cells
Assay: Gene expression microarray analysis (Affymetrix PrimeView) and GSEA
Format: cell-based, human
Design: RFU PODN (11730768_x_at) / Fold change /veh PODN (11730768_x_at) / RFU LINC00158 (11744669_a_at) / Fold change /veh LINC00158 (11744669_a_at) / RFU DUSP10 (11751237_a_at) / Fold change /veh DUSP10 (11751237_a_at) / RFU ID3 (11757404_x_at) / Fold change /veh ID3 (11757404_x_at) / RFU PLEKHG5 (11737974_s_at) / Fold change /veh PLEKHG5 (11737974_s_at) / RFU LRRC4B (11730491_at) / Fold change /veh LRRC4B (11730491_at) / RFU GIMAP4 (11747438_a_at) / Fold change /veh GIMAP4 (11747438_a_at) / RFU KRT8 (11758183_x_at) / Fold change /veh KRT8 (11758183_x_at) / RFU CNN1 (11734310_a_at) / Fold change /veh CNN1 (11734310_a_at) / RFU VPS37D (11726825_at) / Fold change /veh VPS37D (11726825_at) / RFU C10orf10 (11716522_x_at) / Fold change /veh C10orf10 (11716522_x_at) / RFU KIR2DL2 /// KIR2DL4 /// KIR2DL5A /// KIR2DL5B /// KIR2DS1 /// KIR2DS2 /// KIR2DS3 /// KIR2DS4 /// KIR3DL3 /// KIR3DL3 /// KIR3DS1 (11738374_at) / Fold change /veh KIR2DL2 /// KIR2DL4 /// KIR2DL5A /// KIR2DL5B /// KIR2DS1 /// KIR2DS2 /// KIR2DS3 /// KIR2DS4 /// KIR3DL3 /// KIR3DL3 /// KIR3DS1 (11738374_at) / RFU C1QL1 (11718748_at) / Fold change /veh C1QL1 (11718748_at) / RFU TMPRSS4 (11747572_a_at) / Fold change /veh TMPRSS4 (11747572_a_at) / RFU HAMP (11756126_x_at) / Fold change /veh HAMP (11756126_x_at) / RFU RNFT2 (11725882_a_at) / Fold change /veh RNFT2 (11725882_a_at) / RFU NR4A2 (11747474_a_at) / Fold change /veh NR4A2 (11747474_a_at) / RFU ABCC12 (11746883_a_at) / Fold change /veh ABCC12 (11746883_a_at) / RFU TMEM136 (11760407_x_at) / Fold change /veh TMEM136 (11760407_x_at) / RFU CLDN22 /// WWC2 (11732394_at) / Fold change /veh CLDN22 /// WWC2 (11732394_at) / RFU HLA-DPB1 (11760878_x_at) / Fold change /veh HLA-DPB1 (11760878_x_at) / RFU SPINT1 (11716480_a_at) / Fold change /veh SPINT1 (11716480_a_at) / RFU GAP43 (11754022_s_at) / Fold change /veh GAP43 (11754022_s_at) / RFU A4GNT (11735810_at) / Fold change /veh A4GNT (11735810_at) / RFU PRB3 (11715151_x_at) / Fold change /veh PRB3 (11715151_x_at) / RFU TUBB4B (11761932_at) / Fold change /veh TUBB4B (11761932_at) / RFU CAPN14 (11732068_a_at) / Fold change /veh CAPN14 (11732068_a_at) / RFU TMCC2 (11721928_a_at) / Fold change /veh TMCC2 (11721928_a_at) / RFU IRGQ (11745062_a_at) / Fold change /veh IRGQ (11745062_a_at) / RFU FAM174B (11720279_a_at) / Fold change /veh FAM174B (11720279_a_at) / RFU TMPRSS4 (11748680_a_at) / Fold change /veh TMPRSS4 (11748680_a_at) / RFU FAM212B (11763350_a_at) / Fold change /veh FAM212B (11763350_a_at) / RFU PLEKHG5 (11743358_a_at) / Fold change /veh PLEKHG5 (11743358_a_at) / RFU ZSCAN30 (11745921_a_at) / Fold change /veh ZSCAN30 (11745921_a_at) / RFU CMKLR1 (11741424_a_at) / Fold change /veh CMKLR1 (11741424_a_at) / RFU LOC101060620 /// MAPK8IP1 (11723275_at) / Fold change /veh LOC101060620 /// MAPK8IP1 (11723275_at) / RFU SPTSSB (11747773_x_at) / Fold change /veh SPTSSB (11747773_x_at) / RFU PRSS12 (11739890_at) / Fold change /veh PRSS12 (11739890_at) / RFU BIN1 (11741810_x_at) / Fold change /veh BIN1 (11741810_x_at) / RFU WNT11 (11732464_a_at) / Fold change /veh WNT11 (11732464_a_at) / RFU C10orf10 (11716521_a_at) / Fold change /veh C10orf10 (11716521_a_at) / RFU C5orf56 (11738089_at) / Fold change /veh C5orf56 (11738089_at) / RFU CYB561 (11721691_x_at) / Fold change /veh CYB561 (11721691_x_at) / RFU ANKRD19P (11752326_a_at) / Fold change /veh ANKRD19P (11752326_a_at) / RFU OR2T12 /// OR2T33 /// OR2T8 (11738714_s_at) / Fold change /veh OR2T12 /// OR2T33 /// OR2T8 (11738714_s_at) / RFU VCAN (11748164_a_at) / Fold change /veh VCAN (11748164_a_at) / RFU JSRP1 (11732532_at) / Fold change /veh JSRP1 (11732532_at) / RFU KRTAP10-11 (11738290_x_at) / Fold change /veh KRTAP10-11 (11738290_x_at) / RFU MYO3A (11730013_a_at) / Fold change /veh MYO3A (11730013_a_at) / RFU EBF3 (11725865_a_at) / Fold change /veh EBF3 (11725865_a_at) / RFU CAMK2N1 (11719241_x_at) / Fold change /veh CAMK2N1 (11719241_x_at) / RFU C5orf56 (11738088_a_at) / Fold change /veh C5orf56 (11738088_a_at) / RFU OLFML3 (11715873_a_at) / Fold change /veh OLFML3 (11715873_a_at) / RFU LOC100653217 /// NTM (11731650_a_at) / Fold change /veh LOC100653217 /// NTM (11731650_a_at) / RFU MAPK11 (11762145_a_at) / Fold change /veh MAPK11 (11762145_a_at) / RFU FIZ1 (11724087_x_at) / Fold change /veh FIZ1 (11724087_x_at) / RFU OASL (11726364_x_at) / Fold change /veh OASL (11726364_x_at) / RFU SOX15 (11748057_x_at) / Fold change /veh SOX15 (11748057_x_at) / RFU CD79A (11719716_a_at) / Fold change /veh CD79A (11719716_a_at) / RFU HIST1H1D (11736915_at) / Fold change /veh HIST1H1D (11736915_at) / RFU CASKIN2 (11723855_a_at) / Fold change /veh CASKIN2 (11723855_a_at) / RFU LOC730098 (11760151_x_at) / Fold change /veh LOC730098 (11760151_x_at) / RFU OR4N2 (11742367_at) / Fold change /veh OR4N2 (11742367_at) / RFU PRRT2 (11749266_a_at) / Fold change /veh PRRT2 (11749266_a_at) / RFU SNX32 (11753110_a_at) / Fold change /veh SNX32 (11753110_a_at) / RFU CDHR5 (11726645_a_at) / Fold change /veh CDHR5 (11726645_a_at) / RFU RCAN1 (11760418_a_at) / Fold change /veh RCAN1 (11760418_a_at) / RFU FAM167A (11723789_a_at) / Fold change /veh FAM167A (11723789_a_at) / RFU FAM26E (11764081_at) / Fold change /veh FAM26E (11764081_at) / RFU ISYNA1 (11749810_s_at) / Fold change /veh ISYNA1 (11749810_s_at) / RFU ACY1 (11761880_at) / Fold change /veh ACY1 (11761880_at) / RFU 11764098_at / Fold change /veh 11764098_at / RFU SAMD14 (11745864_x_at) / Fold change /veh SAMD14 (11745864_x_at) / RFU NPB (11741838_a_at) / Fold change /veh NPB (11741838_a_at) / RFU TMPRSS6 (11731388_a_at) / Fold change /veh TMPRSS6 (11731388_a_at) / RFU KRTAP10-2 (11738614_at) / Fold change /veh KRTAP10-2 (11738614_at) / RFU ARHGAP8 /// PRR5-ARHGAP8 (11727945_x_at) / Fold change /veh ARHGAP8 /// PRR5-ARHGAP8 (11727945_x_at) / RFU KRTAP5-7 /// NADSYN1 (11734609_at) / Fold change /veh KRTAP5-7 /// NADSYN1 (11734609_at) / RFU RASL12 (11751679_a_at) / Fold change /veh RASL12 (11751679_a_at) / RFU CDKN2B (11736163_a_at) / Fold change /veh CDKN2B (11736163_a_at) / RFU PRF1 (11729649_at) / Fold change /veh PRF1 (11729649_at) / RFU, ZNF638 /// ZNF638-IT1 / Fold change vs veh, ZNF638 /// ZNF638-IT1 / RFU, PANK3 / Fold change vs veh, PANK3 / RFU, SH3YL1 / Fold change vs veh, SH3YL1 / RFU, ZEB2 / Fold change vs veh, ZEB2 / RFU, NRIP1 / Fold change vs veh, NRIP1 / RFU, PTTG1IP / Fold change vs veh, PTTG1IP / RFU, CAPN2 / Fold change vs veh, CAPN2 / RFU, MED14 / Fold change vs veh, MED14 / RFU, SNORA58 / Fold change vs veh, SNORA58 / RFU, C1orf63 / Fold change vs veh, C1orf63 / RFU, LRRFIP1 / Fold change vs veh, LRRFIP1 / RFU, NDUFAF7 / Fold change vs veh, NDUFAF7 / RFU, SLC12A2 / Fold change vs veh, SLC12A2 / RFU, IBTK / Fold change vs veh, IBTK / RFU, ESF1 / Fold change vs veh, ESF1 / Fold change vs veh, TMEM50B / RFU, TAOK1 / Fold change vs veh, TAOK1 / RFU, ACBD3 / Fold change vs veh, ACBD3 / RFU, TMA16 / Fold change vs veh, TMA16 / RFU, RWDD3 / Fold change vs veh, RWDD3 / RFU, BCAT1 / Fold change vs veh, BCAT1 / RFU, EDEM3 / Fold change vs veh, EDEM3 / RFU, TMEM33 / Fold change vs veh, TMEM33 / RFU, WDR75 / Fold change vs veh, WDR75 / RFU, AHCTF1 / Fold change vs veh, AHCTF1 / RFU, TFRC / Fold change vs veh, TFRC / RFU, ZDHHC17 / Fold change vs veh, ZDHHC17 / RFU, NOM1 / Fold change vs veh, NOM1 / RFU, ARL8B / Fold change vs veh, ARL8B / RFU, ZBTB11 / Fold change vs veh, ZBTB11 / RFU, TAMM41 / Fold change vs veh, TAMM41 / RFU, KIAA1704 /// LOC100996395 / Fold change vs veh, KIAA1704 /// LOC100996395 / RFU, ING1 / Fold change vs veh, ING1 / RFU, TRMT61B / Fold change vs veh, TRMT61B / RFU, FUBP3 / Fold change vs veh, FUBP3 / RFU, TP53 / Fold change vs veh, TP53 / RFU, TNKS2 / Fold change vs veh, TNKS2 / RFU, ZFP14 / Fold change vs veh, ZFP14 / RFU, ACTR2 / Fold change vs veh, ACTR2 / RFU, PPP3R1 / Fold change vs veh, PPP3R1 / RFU, PIK3R1 / Fold change vs veh, PIK3R1 / RFU, HNRNPA1 / Fold change vs veh, HNRNPA1 / RFU, RNF170 / Fold change vs veh, RNF170 / RFU, ZNF28 / Fold change vs veh, ZNF28 / RFU, RNGTT / Fold change vs veh, RNGTT / RFU, OGT / Fold change vs veh, OGT / RFU, BRD1 / Fold change vs veh, BRD1 / RFU, MARS / Fold change vs veh, MARS / RFU, ZNF655 / Fold change vs veh, ZNF655 / RFU, FAHD1 / Fold change vs veh, FAHD1 / RFU, BDP1 / Fold change vs veh, BDP1 / RFU, LRRCC1 / Fold change vs veh, LRRCC1 / RFU, ARID1A / Fold change vs veh, ARID1A / RFU, ZNF146 / Fold change vs veh, ZNF146 / RFU, ZNF330 / Fold change vs veh, ZNF330 / RFU, GPN3 / Fold change vs veh, GPN3 / RFU, C9orf123 / Fold change vs veh, C9orf123 / RFU, N4BP2L2 / Fold change vs veh, N4BP2L2 / RFU, ARFIP1 / Fold change vs veh, ARFIP1 / RFU, FAM179B / Fold change vs veh, FAM179B / RFU, BCL10 / Fold change vs veh, BCL10 / RFU, UHRF1BP1L / Fold change vs veh, UHRF1BP1L / RFU, BET1 / Fold change vs veh, BET1 / RFU, CNOT2 / Fold change vs veh, CNOT2 / RFU, ZNF268 / Fold change vs veh, ZNF268 / Fold change vs veh, ZNF507 / RFU, DGCR2 / Fold change vs veh, DGCR2 / RFU, WDSUB1 / Fold change vs veh, WDSUB1 / Fold change vs veh, HSP90B1 /// MIR3652 / RFU, ADSS / Fold change vs veh, ADSS / RFU, GK / Fold change vs veh, GK / RFU, ZNF148 / Fold change vs veh, ZNF148 / RFU, TAF9 / Fold change vs veh, TAF9 / RFU, SLC1A5 / Fold change vs veh, SLC1A5 / RFU, SLMO2 / Fold change vs veh, SLMO2 / RFU, ABCC4 / Fold change vs veh, ABCC4 / RFU, LOC101060439 /// RAP1B / Fold change vs veh, LOC101060439 /// RAP1B / RFU, RFX7 / Fold change vs veh, RFX7 / RFU, GTPBP10 / Fold change vs veh, GTPBP10 / RFU, CNEP1R1 / Fold change vs veh, CNEP1R1 / RFU, BIVM-ERCC5 /// ERCC5 / Fold change vs veh, BIVM-ERCC5 /// ERCC5 / RFU, ILF3 / Fold change vs veh, ILF3 / RFU 11762660_at / Fold change /veh 11762660_at / RFU VCAN (11757783_s_at) / Fold change /veh VCAN (11757783_s_at) / RFU DDX43 (11728927_at) / Fold change /veh DDX43 (11728927_at) / RFU KRT8 (11758188_x_at) / Fold change /veh KRT8 (11758188_x_at) / RFU NKD1 (11759106_at) / Fold change /veh NKD1 (11759106_at) / RFU SRD5A1 (11742802_a_at) / Fold change /veh SRD5A1 (11742802_a_at) / RFU TPSAB1 /// TPSB2 (11721975_s_at) / Fold change /veh TPSAB1 /// TPSB2 (11721975_s_at) / RFU GSTM3 (11746129_a_at) / Fold change /veh GSTM3 (11746129_a_at) / RFU IL23R (11737362_x_at) / Fold change /veh IL23R (11737362_x_at) / RFU TMEM51 (11727254_a_at) / Fold change /veh TMEM51 (11727254_a_at) / RFU PIWIL2 (11732686_x_at) / Fold change /veh PIWIL2 (11732686_x_at) / RFU ORM1 (11744905_x_at) / Fold change /veh ORM1 (11744905_x_at) / RFU CCDC152 (11743942_at) / Fold change /veh CCDC152 (11743942_at) / RFU ECM1 (11717891_a_at) / Fold change /veh ECM1 (11717891_a_at) / RFU IL23R (11748794_a_at) / Fold change /veh IL23R (11748794_a_at) / RFU TNFAIP8L3 (11732012_x_at) / Fold change /veh TNFAIP8L3 (11732012_x_at) / RFU MBOAT4 (11741988_at) / Fold change /veh MBOAT4 (11741988_at) / RFU 11764193_at / Fold change /veh 11764193_at / RFU TMEM53 (11763286_at) / Fold change /veh TMEM53 (11763286_at) / RFU MAGEB2 (11727129_at) / Fold change /veh MAGEB2 (11727129_at) / RFU TMEM200A (11744735_a_at) / Fold change /veh TMEM200A (11744735_a_at) / RFU CCDC152 (11751479_a_at) / Fold change /veh CCDC152 (11751479_a_at) / RFU FAM211A (11726209_a_at) / Fold change /veh FAM211A (11726209_a_at) / RFU RGS16 (11746705_a_at) / Fold change /veh RGS16 (11746705_a_at) / RFU VCAN (11755009_s_at) / Fold change /veh VCAN (11755009_s_at) / RFU RHOB (11743442_s_at) / Fold change /veh RHOB (11743442_s_at) / RFU RGS16 (11720943_a_at) / Fold change /veh RGS16 (11720943_a_at) / RFU RGS16 (11720944_at) / Fold change /veh RGS16 (11720944_at) / RFU, VPS4B / Fold change vs veh, VPS4B / RFU, CREB1 / Fold change vs veh, CREB1 / RFU, DNAJC13 / Fold change vs veh, DNAJC13 / RFU, GNAQ / Fold change vs veh, GNAQ / RFU, CDK5R1 / Fold change vs veh, CDK5R1 / RFU, ZRANB3 / Fold change vs veh, ZRANB3 / RFU, CUL4A / Fold change vs veh, CUL4A / RFU, CCNY / Fold change vs veh, CCNY / RFU, UFL1 / Fold change vs veh, UFL1 / RFU, COG3 / Fold change vs veh, COG3 / RFU, DIAPH2 / Fold change vs veh, DIAPH2 / RFU, SKA2 / Fold change vs veh, SKA2 / RFU, AFF3 / Fold change vs veh, AFF3 / RFU, LMF1 / Fold change vs veh, LMF1 / RFU, IPO11 / Fold change vs veh, IPO11 / RFU, DFFB / Fold change vs veh, DFFB / RFU, FOXP1 / Fold change vs veh, FOXP1 / RFU, CARD8 / Fold change vs veh, CARD8 / RFU, STRN3 / Fold change vs veh, STRN3 / RFU, ADK / Fold change vs veh, ADK / RFU, RASSF2 / Fold change vs veh, RASSF2 / RFU, WIPF1 / Fold change vs veh, WIPF1 / RFU, LARP1B / Fold change vs veh, LARP1B / RFU, RASA1 / Fold change vs veh, RASA1 / RFU, RB1 / Fold change vs veh, RB1 / RFU, PPFIA1 / Fold change vs veh, PPFIA1 / RFU, MAT2A / Fold change vs veh, MAT2A / RFU, CCT5 / Fold change vs veh, CCT5 / RFU, WDR92 / Fold change vs veh, WDR92 / RFU, CUX1 / Fold change vs veh, CUX1 / RFU, TTC7A / Fold change vs veh, TTC7A / RFU, TMEM135 / Fold change vs veh, TMEM135 / RFU, DEPTOR / Fold change vs veh, DEPTOR / RFU, CPM / Fold change vs veh, CPM / RFU, DNAJB6 / Fold change vs veh, DNAJB6 / RFU, CACNA2D3 / Fold change vs veh, CACNA2D3 / RFU, DTX4 / Fold change vs veh, DTX4 / RFU, TFCP2 / Fold change vs veh, TFCP2 / RFU, GMCL1 /// GMCL1P1 / Fold change vs veh, GMCL1 /// GMCL1P1 / RFU, AEBP2 / Fold change vs veh, AEBP2 / RFU, SNHG1 /// SNORD22 /// SNORD25 /// SNORD26 /// SNORD27 /// SNORD28 /// SNORD29 /// SNORD31 / Fold change vs veh, SNHG1 /// SNORD22 /// SNORD25 /// SNORD26 /// SNORD27 /// SNORD28 /// SNORD29 /// SNORD31 / Fold change (Aza/veh), C12orf56 (ProbeSet 11735607_a_at) / Fold change (ACY-1035/veh), C12orf56 (ProbeSet 11735607_a_at) / Fold change (Aza/veh), FGFR1OP (ProbeSet 11751329_s_at) / Fold change (ACY-1035/veh), FGFR1OP (ProbeSet 11751329_s_at) / Fold change (Aza/veh), VPS36 (ProbeSet 11739960_a_at) / Fold change (ACY-1035/veh), VPS36 (ProbeSet 11739960_a_at) / RFU SYPL1 (11715823_x_at) / Fold change /veh SYPL1 (11715823_x_at) / RFU IGFBP7 (11715501_s_at) / Fold change /veh IGFBP7 (11715501_s_at) / RFU REEP3 (11722064_at) / Fold change /veh REEP3 (11722064_at) / RFU IGLL1 (11728026_x_at) / Fold change /veh IGLL1 (11728026_x_at): dose or concentration left out as unconfirmed
Settings: MV-4-11 cells, 48 hours

## Nc1ccc(-c2cccs2)cc1NC(=O)c1ccc2c(c1)cc(C1CC1)n2CCN1CCOCC1 [ACY-1035]
  RFU DUSP10 (11751237_a_at): 30.58 RFU
